Earlier results in patent US10954336B2 (SCRUM Co., Ltd., priority 2017, dated 2021).

Settings: comparison / conventional substances

- Acidity: yes
SMILES: C[C@H](O)C(=O)O [L-lactic acid]
